Like-named read-outs stand apart in the source and are kept apart here.
What was measured:
[1] = tested on: green peach aphid (Myzus persicae); test: Myzus test (MYZUPE spray treatment); type: in vivo; conditions: application rate 100 g/ha, after 6 days, Chinese cabbage leaf discs
[2] = tested on: caterpillars of the armyworm (Spodoptera frugiperda); test: Spodoptera frugiperda test (SPODFR spray treatment); type: in vivo; conditions: 168 h, read-out: activity (caterpillars killed)
Protocol: After 7 days, the effect in % is determined.

Boophilus microplus = Boophilus microplus test (BOOPMI injection); type: in vivo; conditions: application rate 20 μg/animal, injection into abdomen, after 7 days
Protocol: (§1) Solvent: dimethyl sulphoxide
The active compound solution is injected into the abdomen (Boophilus microplus), and the animals are transferred into dishes and stored in a climate-controlled room.
The activity is assessed by […] of fertile eggs. 100% means that none of the ticks has laid any fertile eggs.

Lucilia cuprina larvae = test: Lucilia cuprina test (LUCICU); type: in vivo; conditions: application rate 100 ppm, after 48 h
Text: as §1
Vessels containing horse meat treated with the active compound preparation of the desired concentration are populated with about 20 Lucilia cuprina larvae.

[3] = logP by HPLC on reversed-phase columns (C18), EEC Directive 79/831 Annex V.A8; type: physicochemical
[4] = tested on: larvae of the mustard beetle (Phaedon cochleariae); test: Phaedon test (PHAECO spray treatment); conditions: 168 h, read-out: activity (beetle larvae killed)

## CNC(=O)c1cc(C#N)cc(C)c1NC(=O)c1cc(C(=O)Cn2nnc(C(F)(F)F)n2)nn1-c1ncccc1Cl [Example 15]
[1]
  activity (aphids killed): 90%
[2]
  pest or weed control at 20 g/ha: 100%
Boophilus microplus
  efficacy (no fertile eggs laid): 100%
Lucilia cuprina larvae
  efficacy (kill of larvae): 100%
[3]; pH 2.7, log P
  chromatographic logP: 2.89
[4]
  pest or weed control at 100 g/ha: 100%

## CNC(=O)c1cc(Cl)cc(C)c1NC(=O)c1cc(N2CCN(c3cc(C(F)(F)F)cc(C(F)(F)F)c3)C2=O)nn1-c1ncccc1Cl [Example 22]
[2]; application rate 100 g/ha, after 7 days
  pest or weed control at 100 g/ha: 100%
Boophilus microplus
  efficacy (no fertile eggs laid): 100%
Lucilia cuprina larvae
  efficacy (kill of larvae): 100%
[3]; reversed-phase HPLC column (C18), pH 2.7, HPLC reversed-phase C18, acidic range pH 2.7, 0.1% aqueous formic acid/acetonitrile, table of compounds of formula (I), read-out: log P
  chromatographic logP: 4.43
[4]
  pest or weed control at 100 g/ha: 100%

## CNC(=O)c1cc(C#N)cc(C)c1NC(=O)c1cc(C(O)Cn2nnc(C(F)(F)F)n2)nn1-c1ncccc1Cl (stereo not shown) [Example 63]
[1]
  activity (aphids killed): 80%
[2]
  pest or weed control at 100 g/ha: 100%
Boophilus microplus
  efficacy (no fertile eggs laid): 100%
[3]; pH 2.7
  log P: 2.27
[3]; pH 2.7, log P
  chromatographic logP: 2.01

Source: patent US8791139B2, “Anthranilic diamide derivatives” (Bayer Cropscience AG, priority 2010, dated 2014)
